Data reported in patent US12303509B2, “Compounds for the treatment of BRAF-associated diseases and disorders” (Pfizer Inc., priority 2020, dated 2025).
Where a name gives a salt, the structure may show the parent alone.

Tests used:
[1] = MDR1 LLC-PK1 and BCRP MDCKII permeability assay: permeability coefficient (Papp); format: in vitro ADME
From the text: (§1) Final organic concentration in the assay was 1%.

BCRP = BCRP (Homo sapiens (Human), UniProt Q9UNQ0); assay: BCRP MDCKII permeability assay: efflux ratio; format: in vitro ADME; settings: dog
BCRP, sequence (Q9UNQ0 whole entry): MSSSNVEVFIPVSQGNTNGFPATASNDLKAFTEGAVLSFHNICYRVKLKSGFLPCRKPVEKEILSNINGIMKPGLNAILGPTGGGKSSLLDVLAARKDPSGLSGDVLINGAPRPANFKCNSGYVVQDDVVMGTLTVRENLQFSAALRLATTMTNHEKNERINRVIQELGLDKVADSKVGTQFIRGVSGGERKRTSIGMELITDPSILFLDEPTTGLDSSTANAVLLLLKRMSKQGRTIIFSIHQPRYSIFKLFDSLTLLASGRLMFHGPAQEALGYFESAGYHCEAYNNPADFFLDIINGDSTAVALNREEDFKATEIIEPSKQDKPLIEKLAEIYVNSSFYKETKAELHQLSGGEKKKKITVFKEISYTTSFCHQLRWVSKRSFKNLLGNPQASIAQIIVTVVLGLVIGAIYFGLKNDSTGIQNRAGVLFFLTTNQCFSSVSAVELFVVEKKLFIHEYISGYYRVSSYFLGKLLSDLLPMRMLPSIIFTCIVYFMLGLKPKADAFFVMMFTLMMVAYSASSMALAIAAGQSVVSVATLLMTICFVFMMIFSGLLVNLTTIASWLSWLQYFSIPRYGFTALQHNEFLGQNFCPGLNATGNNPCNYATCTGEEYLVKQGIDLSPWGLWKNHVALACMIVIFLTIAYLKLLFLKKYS

P-gp (MDR1) = P-gp (MDR1) (Homo sapiens (Human), UniProt P08183); assay: MDR1 LLC-PK1 permeability assay: efflux ratio; format: in vitro ADME; settings: pig
P-gp (MDR1), sequence (P08183 whole entry, species assumed): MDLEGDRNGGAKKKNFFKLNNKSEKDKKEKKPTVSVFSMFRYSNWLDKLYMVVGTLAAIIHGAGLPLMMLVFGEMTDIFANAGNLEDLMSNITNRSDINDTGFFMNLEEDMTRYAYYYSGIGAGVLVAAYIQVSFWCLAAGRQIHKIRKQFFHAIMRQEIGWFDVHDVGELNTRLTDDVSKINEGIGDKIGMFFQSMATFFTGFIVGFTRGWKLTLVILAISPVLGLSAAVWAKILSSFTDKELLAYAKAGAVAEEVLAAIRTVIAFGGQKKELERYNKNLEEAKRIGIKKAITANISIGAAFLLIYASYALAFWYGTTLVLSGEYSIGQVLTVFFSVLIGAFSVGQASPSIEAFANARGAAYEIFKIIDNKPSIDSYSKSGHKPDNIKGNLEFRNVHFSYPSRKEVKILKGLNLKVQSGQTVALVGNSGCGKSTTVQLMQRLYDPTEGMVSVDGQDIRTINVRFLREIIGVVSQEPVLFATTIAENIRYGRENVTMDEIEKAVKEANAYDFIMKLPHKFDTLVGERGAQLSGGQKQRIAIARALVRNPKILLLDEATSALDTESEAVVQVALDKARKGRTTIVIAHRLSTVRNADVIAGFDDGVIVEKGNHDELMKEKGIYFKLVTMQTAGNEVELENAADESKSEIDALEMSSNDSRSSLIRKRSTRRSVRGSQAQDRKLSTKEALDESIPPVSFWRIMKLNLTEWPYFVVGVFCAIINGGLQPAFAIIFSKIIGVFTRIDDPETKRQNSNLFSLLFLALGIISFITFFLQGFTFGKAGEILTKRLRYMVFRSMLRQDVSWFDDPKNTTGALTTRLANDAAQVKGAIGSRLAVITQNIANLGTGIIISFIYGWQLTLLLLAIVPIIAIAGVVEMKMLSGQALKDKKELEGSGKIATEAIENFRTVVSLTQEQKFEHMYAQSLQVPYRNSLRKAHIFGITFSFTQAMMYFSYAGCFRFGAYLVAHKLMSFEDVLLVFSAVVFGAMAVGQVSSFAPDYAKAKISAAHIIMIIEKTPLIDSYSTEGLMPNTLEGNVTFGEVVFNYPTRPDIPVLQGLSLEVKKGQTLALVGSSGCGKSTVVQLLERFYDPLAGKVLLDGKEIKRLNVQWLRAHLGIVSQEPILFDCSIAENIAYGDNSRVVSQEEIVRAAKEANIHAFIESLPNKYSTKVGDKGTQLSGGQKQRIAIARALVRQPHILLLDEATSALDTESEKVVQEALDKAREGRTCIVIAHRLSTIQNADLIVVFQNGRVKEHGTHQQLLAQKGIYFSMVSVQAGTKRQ
From the text: as §1

[2] = target: full-length FLAG-tagged B-Raf(V600E) (Homo sapiens (Human), UniProt P15056, V600E); assay: BRAF V600E enzyme assay (TR-FRET competitive displacement); format: binding; settings: averaged IC50; TR-FRET tracer displacement, 60 min
full-length FLAG-tagged B-Raf(V600E), sequence (P15056 whole entry V600E): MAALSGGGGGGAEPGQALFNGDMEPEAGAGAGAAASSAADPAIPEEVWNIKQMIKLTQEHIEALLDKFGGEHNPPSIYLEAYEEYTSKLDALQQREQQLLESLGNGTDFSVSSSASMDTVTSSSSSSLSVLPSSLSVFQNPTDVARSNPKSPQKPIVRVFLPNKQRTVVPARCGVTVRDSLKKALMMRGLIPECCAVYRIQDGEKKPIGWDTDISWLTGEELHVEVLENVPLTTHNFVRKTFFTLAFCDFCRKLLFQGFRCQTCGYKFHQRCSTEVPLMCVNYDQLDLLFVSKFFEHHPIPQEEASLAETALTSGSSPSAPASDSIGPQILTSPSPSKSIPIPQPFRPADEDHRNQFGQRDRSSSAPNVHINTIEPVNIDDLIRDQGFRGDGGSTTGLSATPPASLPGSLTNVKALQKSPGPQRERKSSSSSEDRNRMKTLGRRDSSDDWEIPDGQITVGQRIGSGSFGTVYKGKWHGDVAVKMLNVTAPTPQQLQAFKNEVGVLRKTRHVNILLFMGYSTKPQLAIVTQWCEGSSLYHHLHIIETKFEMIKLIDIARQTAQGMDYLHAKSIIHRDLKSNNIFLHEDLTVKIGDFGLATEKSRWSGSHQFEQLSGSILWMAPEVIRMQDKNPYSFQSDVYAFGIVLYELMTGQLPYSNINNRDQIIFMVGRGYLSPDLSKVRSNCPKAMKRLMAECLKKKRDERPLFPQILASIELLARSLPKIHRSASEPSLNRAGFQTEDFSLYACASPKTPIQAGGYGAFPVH
Method in brief: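 TR-FRET tracer competition: compound (top dose 10 μM, 3-fold, 11 points) incubated 60 min at ambient temperature with FLAG-tagged full-length B-Raf(V600E) (5 nM), Eu anti-FLAG cryptate (0.5 nM) and tracer (50 nM), pH 7.4 HEPES/MgCl2 buffer. 665/615 ratio converted to percent of control; IC50 where fitted curve crosses 50 POC.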

A375 cells = assay: Cellular phospho-ERK inhibition assay in A375 cells; format: cell-based; settings: Homo sapiens, A-375, A375 cells (head prints A357), 2 hours treatment, read-out: A357 cell IC50
Method in brief: (§2)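 In Cell Western detection of phospho-ERK1/2 (Thr202/Tyr204) over GAPDH after 2 h compound exposure (66 pM to 10 μM, 9 points, 0.25% DMSO) of A375 cells in DMEM or H1755 cells in RPMI, both with 10% FBS. Percent of control set by DMSO and 10 μM binimetinib; 4-parameter IC50.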

H1755 cells = assay: Cellular phospho-ERK inhibition assay in H1755 cells; format: cell-based; settings: Homo sapiens, NCI-H1755, 2 hours treatment, read-out: H1755 Cell IC50
Method in brief: as §2

| Compound | Papp at 2 h, 1 µM [1] [×10⁻⁶ cm/s] | efflux ratio at 2 h, 1 µM (BCRP) | efflux ratio at 2 h, 1 µM (P-gp (MDR1)) | IC50 [2] [nM] | IC50 (A375 cells) [nM] | IC50 (H1755 cells) [nM] |
| --- | --- | --- | --- | --- | --- | --- |
| CCN(C)S(=O)(=O)Nc1cc(F)c(F)c(Nc2ccc3ncn(C)c(=O)c3c2F)c1Cl [Example 45, N-(2-chloro-4,5-difluoro-3-((5-fluoro-3-methyl-4-oxo-3,4-dihydroquinazolin-6-yl)phenyl)-(N-ethyl-N-methyl)-sulfamide trifluoroacetate] | 40 | 1.6 | 1.6 | 4 | 4 | 102 |
| Cc1c(Nc2c(F)ccc(NS(=O)(=O)N3CCCC3)c2F)ccc2ncn(C)c(=O)c12 [Example 113, N-(3-((3,5-dimethyl-4-oxo-3,4-dihydroquinazolin-6-yl)amino)-2,4-difluorophenyl)pyrrolidine-1-sulfonamide trifluoroacetate] | 18 | 1.9 | 1.3 | 38 | 40 | 358 |
| CO[C@@H]1CCN(S(=O)(=O)Nc2ccc(F)c(Nc3ccc4ncn(C)c(=O)c4c3C)c2Cl)C1 [Example 1, (R)-N-(2-chloro-3-((3,5-dimethyl-4-oxo-3,4-dihydroquinazolin-6-yl)amino)-4-fluorophenyl)-3-methoxypyrrolidine-1-sulfonamide] | 31 | 1.4 | 1.7 | 60 | 32 | 103 |
| Cn1cnc2ccc(Nc3c(F)ccc(NS(=O)(=O)N4CCC(F)(F)C4)c3Cl)c(Cl)c2c1=O [Example 25, N-(2-chloro-3-((5-chloro-3-methyl-4-oxo-3,4-dihydroquinazolin-6-yl)amino)-4-fluorophenyl)-3,3-difluoropyrrolidine-1-sulfonamide trifluoroacetate] | 30 | 2.4 | 1.6 | 2 | 16 | 94 |
| Cn1cnc2ccc(Nc3c(F)ccc(NS(=O)(=O)N4CCCC4)c3Cl)c(C#N)c2c1=O [Example 50, N-(2-chloro-3-((5-cyano-3-methyl-4-oxo-3,4-dihydroquinazolin-6-yl)amino)-4-fluorophenyl)pyrrolidine-1-sulfonamide trifluoroacetate] | 26 | 6.3 | 5.3 | 2 | 1 | 20 |
| Cc1c(Nc2c(F)ccc(NS(=O)(=O)N3CC[C@@H](F)C3)c2F)ccc2ncn(C)c(=O)c12 [Example 114, (R)-N-(3-((3,5-dimethyl-4-oxo-3,4-dihydroquinazolin-6-yl)amino)-2,4-difluorophenyl)-3-fluoropyrrolidine-1-sulfonamide trifluoroacetate] | 31 | 5.2 | 2.2 | 16 | 36 | 174 |
| [2H]C([2H])([2H])O[C@@H]1CCN(S(=O)(=O)Nc2ccc(F)c(Nc3ccc4ncn(C)c(=O)c4c3C)c2Cl)C1 [Example 55, (R)-N-(2-chloro-3-((3,5-dimethyl-4-oxo-3,4-dihydroquinazolin-6-yl)amino)-4-fluorophenyl)-3-(methoxy-d3)pyrrolidine-1-sulfonamide trifluoroacetate] | 33 | 1 | 1.5 | 45 | 27 | 124 |
| Cn1cnc2ccc(Nc3c(F)ccc(NS(=O)(=O)N4CC[C@@H](F)C4)c3Cl)c(Br)c2c1=O [Example 24, (R)-N-(3-((5-bromo-3-methyl-4-oxo-3,4-dihydroquinazolin-6-yl)amino)-2-chloro-4-fluorophenyl)-3-fluoropyrrolidine-1-sulfonamide trifluoroacetate] | 27 | 2.6 | 2.5 | 2 | 8 | 25 |
